Experimental data taken from US12049450B2, “Pyridyloxy-carboxylate derivative and preparation method therefor, herbicidal composition, and use” (Qingdao Kingagroot Chemical Compound Co., Ltd., priority 2018, dated 2024).

Tests used:
Assay in all cases: Post-emergence test experiment (greenhouse pot, spray at 2-3 leaf stage)
Type in all cases: in vivo
Settings in all cases: 1000 g/ha; post-emergence spray at 2-3 leaf stage; assessed after 3 weeks; fresh weight inhibition rate
Abutilon theophrasti = tested on: Abutilon theophrasti
Procedure, shortened: (§1)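 Weed seeds sown in soil-filled pots in greenhouse, sprayed at 2-3 leaf stage (2 weeks after sowing) with compound in acetone/tween-80 plus methyl oleate emulsible concentrate (1.5 L/ha) diluted in water. Fresh-weight growth inhibition scored after 3 weeks on 0-5 scale (5: >85%, 0: <5%).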

Digitaria sanguinalis = tested on: Digitaria sanguinalis
Procedure, shortened: as §1

Echinochloa crusgalli = tested on: Echinochloa crusgalli
Procedure, shortened: as §1

Galium spurium = tested on: Galium spurium
Procedure, shortened: as §1

Monochoria vaginalis = tested on: Monochoria vaginalis
Procedure, shortened: as §1

SMILES	Activity level (growth inhibition rate) Abutilon theophrasti (Abutilon theophrasti)	Activity level (growth inhibition rate) Digitaria sanguinalis (Digitaria sanguinalis)	Activity level (growth inhibition rate) Echinochloa crusgalli (Echinochloa crusgalli)	Activity level (growth inhibition rate) Galium spurium (Galium spurium)	Activity level (growth inhibition rate) Monochoria Vaginalis (Monochoria vaginalis)
CC(Oc1nc(F)c(Cl)c(N)c1Cl)C(=O)OCc1cncnc1 (centres unmarked) [Compound 124]	5 (Level 5: the growth inhibition rate is greater than 85%)	5 (Level 5: the growth inhibition rate is greater than 85%)	5 (Level 5: the growth inhibition rate is greater than 85%)	5 (Level 5: the growth inhibition rate is greater than 85%)	5 (Level 5: the growth inhibition rate is greater than 85%)
CC(Oc1nc(F)c(Cl)c(N)c1Cl)C(=O)SCCc1ccncn1 (centres unmarked) [Compound 125]	5 (Level 5: the growth inhibition rate is greater than 85%)	5 (Level 5: the growth inhibition rate is greater than 85%)	5 (Level 5: the growth inhibition rate is greater than 85%)	5 (Level 5: the growth inhibition rate is greater than 85%)	5 (Level 5: the growth inhibition rate is greater than 85%)
CC(Oc1nc(F)c(Cl)c(N)c1Cl)C(=O)OCc1ncncn1 (centres unmarked) [Compound 126]	5 (Level 5: the growth inhibition rate is greater than 85%)	5 (Level 5: the growth inhibition rate is greater than 85%)	5 (Level 5: the growth inhibition rate is greater than 85%)	5 (Level 5: the growth inhibition rate is greater than 85%)	5 (Level 5: the growth inhibition rate is greater than 85%)
Cc1cc(COC(=O)C(C)Oc2nc(F)c(Cl)c(N)c2Cl)n(C)n1 (centres unmarked) [Compound 127]	5 (Level 5: the growth inhibition rate is greater than 85%)	5 (Level 5: the growth inhibition rate is greater than 85%)	5 (Level 5: the growth inhibition rate is greater than 85%)	5 (Level 5: the growth inhibition rate is greater than 85%)	5 (Level 5: the growth inhibition rate is greater than 85%)
CC(Oc1nc(F)c(Cl)c(N)c1Cl)C(=O)OCc1cn(C)cn1 (centres unmarked) [Compound 129]	5 (Level 5: the growth inhibition rate is greater than 85%)	5 (Level 5: the growth inhibition rate is greater than 85%)	5 (Level 5: the growth inhibition rate is greater than 85%)	5 (Level 5: the growth inhibition rate is greater than 85%)	5 (Level 5: the growth inhibition rate is greater than 85%)
CC(Oc1nc(F)c(Cl)c(N)c1Cl)C(=O)OCc1nccn1C (centres unmarked) [Compound 130]	5 (Level 5: the growth inhibition rate is greater than 85%)	5 (Level 5: the growth inhibition rate is greater than 85%)	5 (Level 5: the growth inhibition rate is greater than 85%)	5 (Level 5: the growth inhibition rate is greater than 85%)	5 (Level 5: the growth inhibition rate is greater than 85%)
CC(Oc1nc(F)c(Cl)c(N)c1Cl)C(=O)OCc1cncn1C (centres unmarked) [Compound 131]	5 (Level 5: the growth inhibition rate is greater than 85%)	5 (Level 5: the growth inhibition rate is greater than 85%)	5 (Level 5: the growth inhibition rate is greater than 85%)	5 (Level 5: the growth inhibition rate is greater than 85%)	5 (Level 5: the growth inhibition rate is greater than 85%)
CC(Oc1nc(F)c(Cl)c(N)c1Cl)C(=O)SCc1ccnn1C (centres unmarked) [Compound 132]	5 (Level 5: the growth inhibition rate is greater than 85%)	5 (Level 5: the growth inhibition rate is greater than 85%)	5 (Level 5: the growth inhibition rate is greater than 85%)	5 (Level 5: the growth inhibition rate is greater than 85%)	5 (Level 5: the growth inhibition rate is greater than 85%)
CCCn1cc(CCOC(=O)C(C)Oc2nc(F)c(Cl)c(N)c2Cl)cn1 (centres unmarked) [Compound 133]	5 (Level 5: the growth inhibition rate is greater than 85%)	5 (Level 5: the growth inhibition rate is greater than 85%)	5 (Level 5: the growth inhibition rate is greater than 85%)	5 (Level 5: the growth inhibition rate is greater than 85%)	5 (Level 5: the growth inhibition rate is greater than 85%)
CC(Oc1nc(F)c(Cl)c(N)c1Cl)C(=O)SCc1nncn1C (centres unmarked) [Compound 134]	5 (Level 5: the growth inhibition rate is greater than 85%)	5 (Level 5: the growth inhibition rate is greater than 85%)	5 (Level 5: the growth inhibition rate is greater than 85%)	5 (Level 5: the growth inhibition rate is greater than 85%)	5 (Level 5: the growth inhibition rate is greater than 85%)
CC(Oc1nc(F)c(Cl)c(N)c1Cl)C(=O)OCCc1cnn[nH]1 (centres unmarked) [Compound 135]	5 (Level 5: the growth inhibition rate is greater than 85%)	5 (Level 5: the growth inhibition rate is greater than 85%)	5 (Level 5: the growth inhibition rate is greater than 85%)	5 (Level 5: the growth inhibition rate is greater than 85%)	5 (Level 5: the growth inhibition rate is greater than 85%)
CC(Oc1nc(F)c(Cl)c(N)c1Cl)C(=O)OCn1cncn1 (centres unmarked) [Compound 136]	5 (Level 5: the growth inhibition rate is greater than 85%)	5 (Level 5: the growth inhibition rate is greater than 85%)	5 (Level 5: the growth inhibition rate is greater than 85%)	5 (Level 5: the growth inhibition rate is greater than 85%)	5 (Level 5: the growth inhibition rate is greater than 85%)
CC(Oc1nc(F)c(Cl)c(N)c1Cl)C(=O)SCn1ccnn1 (centres unmarked) [Compound 137]	5 (Level 5: the growth inhibition rate is greater than 85%)	5 (Level 5: the growth inhibition rate is greater than 85%)	5 (Level 5: the growth inhibition rate is greater than 85%)	5 (Level 5: the growth inhibition rate is greater than 85%)	5 (Level 5: the growth inhibition rate is greater than 85%)
